Entries after “also recorded” stand apart in the source; their conditions may differ.
Legend:
[1] = tested on: primary melanocytes from a skin donor; test: Melanosome immunostaining in primary melanocytes from donor; type: cell-based, human; settings: OAG-treated vs control primary melanocytes, FIG. 1A
Protocol: (§1) The human melanoma G361 were bought from Cell Resource Center for Biomedical Research, Tohoku University, Japan and were cultured in DMEM (Dulbecco's Modified Eagle's Medium, Invitrogen) supplemented with 10% fetal bovine serum in a humidified incubator (37° C. and 5% CO2). Human primary melanocytes from the light and dark skin donors were bought from ScienCell Research Laboratories and were cultured in the recommended melanocyte growth medium. Cells were transfected with the expression plasmids coding for either mortalin or HSP60 protein using Fugene (Roche) as per recommended protocol. Typically 3-5 μg of plasmid DNA was used for 6 cms culture dish at 70-80% confluency. Cells were incubated with the plasmids for 48 hrs after which cells were harvested and examined for the expression indicated genes by protocols as described below. For shRNA transfections, Oligofectamine™ Transfection Reagent (Life Technologies™) was used as per manufacturer's instructions. Transfected cells were incubated with medium supplemented with puromycin (1 ug/ml) for 24-48 hrs and were then processed for assays as described below.
(§2) Cells were cultured and treated on glass coverslips placed in 12-well culture dish. […]

[2] = tested on: human melanoma cells G361; test: Melanosome immunostaining in G361 cells; type: cell-based; settings: OAG-treated vs control G361 cells, FIG. 1B
Protocol: as §1, §2

G361 cells = test: Melanin content in G361 cells; type: cell-based, human; settings: for OAG-induced melanin content: OAG-treated G361 cells, recovery with test substance
Protocol: Cells were treated with Di-acyl glycerol (OAG, 20 μg/ml) for 24 h followed by recovery either in the normal medium as described below or Vitamin C (0.1-0.3 mM) for 24 to 48 hrs.
(§3) G361 cells were cultured overnight and allowed to adhere to the surface well after which they were treated with TXC supplemented medium or OAG as described below followed by recovery in the TXC medium at doses indicated in the data figs.
Cells were plated in 96 well plates and allowed to attach well to the surface of the plate for 24 hours followed by transfections and treatments as described above and indicated in the figure legends. Cells were washed with PBS. Potassium hydroxide (KOH-0.85 N, 100 μl) was added to each. The plates were shaken gently in dark for overnight. Absorbance of the pigment was measured at 405 nm. Melanin content was calculated by using standard purified melanin (Sigma).

tyrosinase [3] = test: Western blotting of tyrosinase in G361 cells; type: cell-based, human
Protocol: (§4) Cells were grown and treated in 6-well plates. After transfections or drug treatments as described above, the cells were lysed with RIPA lysis buffer. Cell lysate (30 μg) was resolved on SDS-PAGE followed by transfer onto a nitrocellulose membrane (Millipore) using a semidry transfer blotter. Immunoassays were done with anti-mortalin, anti-HSP70 and anti-tyrosinase antibodies. The immunocomplexes formed were visualized with horseradish peroxidase-conjugated anti-rabbit/mouse immunoglobulin G. The bands were detected by LAS 3000 mini (FujiFilm).

tyrosinase [4] = test: Tyrosinase ELISA (tyrosinase activity assay) in G361 cells; type: cell-based, human
Protocol: Cells (Approximately 10000 cells/well) were plated in 96 well Nunc-Immuno maxisorp plates. At about 70% confluency, cells were transfected with shRNA plasmids (100 ng/well) as described above. After 24 hrs post-transfection, the cells were selected in puromycin-supplemented medium and were then processed for tyrosinase ELISA as described below. Cells were washed with PBS twice and were lysed in RIPA lysis buffer (Santa Cruz Biotechnology). Protein concentrations of the lysates were determined (Pierce BCA Protein Assay kit, Thermo Scientific) and the samples were diluted to 1 ug/ul concentration in coating buffer (0.1 M Sodium bicarbonate, 0.02% Sodium Azide pH-9.6). 5 μg of the protein sample was added to each well in a final volume of 100 μl of the coating buffer. The plates were gently shaken for 10 min and were then securely sealed and left for 2 hrs at room temperature. The solution was discarded and the plates were washed with washing buffer (PBS-0.5% TWEEN® 20, which is polysorbate 20) for 5 min. Blocking buffer (200 ul) was added to each well and the plates were incubated for 2 hours at room temperature followed by washings with the Washing buffer twice (3 min each). Anti-tyrosinase antibody (50 μl, 5 μg/ml in the blocking buffer) was added to each well and the plated were sealed and kept at room temperature for 1-2 hrs followed by washings with the washing buffer (3×10 min). The plates were incubated with the secondary antibody (Alkaline phosphatase, AP-Goat anti Rabbit IgG) for 1 hr and were then washed with the washing buffer for 3-5 times. The 100 μl of the substrate for AP (Nitrophenyl Phosphate, Disodium Salt, PNPP) was added to each well. Plates were again sealed and left for 30 min followed by measuring the absorbance at 405 nm that represented the quantitative estimation of tyrosinase expression.

Hsp60 [5] = test: Immunostaining of Hsp60 upon OAG induction; type: cell-based, human; settings: induction of melanogenesis by OAG, FIG. 4
Protocol: (§5) Cells were cultured and treated on glass coverslips placed in 12-well culture dish. At the end of the treatment as described above, coverslips were washed with cold phosphate-buffered saline (PBS) and the cells were fixed with pre-chilled methanol:acetone (1:1 v/v) mixture for 5-10 min. Fixed cells were washed with PBS, permeabilized with 0.2% TRITON™ X-100 (4-(1,1,3,3-Tetramethylbutyl)phenyl-polyethylene glycol) in PBS for 10 min, and blocked with 2% bovine serum albumin (BSA) in PBS for 20 min. Cells were stained with anti-mortalin, anti-HSP60, anti-tyrosinase and anti-melanosome antibodies. Immunostaining was visualized by secondary staining with Alexa-488 or Alexa-594 conjugated antibodies (Molecular probes). After three to four washings with 0.2% TRITON™ X-100 in PBS (PBST), cells were overlaid with Fluoromount (Difco). The cells were examined with Carl Zeiss microscope with epifluorescence optics.

mortalin [6] = test: Immunostaining of mortalin upon OAG induction; type: cell-based, human; settings: induction of melanogenesis by OAG, FIG. 5
Protocol: as §5

mortalin [7] = test: Mortalin expression (immunoblotting) in G361 cells; type: cell-based, human
Protocol: as §3, §4

Hsp60 [8] = test: Hsp60 expression in G361 cells; type: cell-based, human; settings: FIG. 13B, Hydrochloride Salt

With `CCCCCCCC/C=C\CCCCCCCC(=O)OC[C@H](CO)OC(C)=O` [OAG, 1-oleoyl-2-acetyl-sn-glycero] the melanosome production [1] was “induced”, the melanosome production [2] was “induced” and the melanin content (G361 cells; G361 cells treated with OAG, FIG. 2) was “Increase”. For the same molecule, the tyrosinase expression (tyrosinase [3]; OAG-treated G361 cells, FIG. 3A) was “increase”, the tyrosinase activity (tyrosinase [4]; OAG-treated G361 cells, FIG. 3B) was “increase” and the “Hsp60 level (immunostaining)” value (Hsp60 [5]) was “upregulation”. For the same molecule, the “mortalin level (immunostaining)” value (mortalin [6]) was “upregulation” and the mortalin expression (mortalin [7]; G361 cells treated with OAG, FIG. 13C) was “Increase”.
With `CCCCCCCCCCCCCCCCOC(=O)C1CCC(CN)CC1.Cl` (centres unmarked) [TXC, Cetyl Tranexamate Hydrochloride Salt] the OAG-induced melanin content (G361 cells) was “reduction”, the endogenous melanin (G361 cells; OAG-untreated G361 cells) was “reduction” and the “endogenous expression of tyrosinase” value (tyrosinase [3]; G361 cells, FIG. 13A, Hydrochloride Salt) was “Reduction; also recorded: decreases”. The OAG-induced tyrosinase activity (tyrosinase [4]; OAG-treated G361 cells, TXC at various concentrations, FIG. 12) was “reduction”, the “endogenous expression of Hsp60” value (Hsp60 [8]) was “Reduction; also recorded: decreases” and the “OAG-induced expression of Mortalin” value (mortalin [7]; G361 cells treated with OAG, then recovery in presence of test substance, Hydrochloride Salt) was “reduction; also recorded: decrease”. For the same molecule, the “endogenous expression of Mortalin” value (mortalin [7]; G361 cells, FIG. 13, Hydrochloride Salt) was “reduction; also recorded: decreases”.
`O=C1O[C@H]([C@@H](O)CO)C(O)=C1O` [Vitamin C] was tested, and the OAG-induced melanin content (G361 cells) was “reduction” and the OAG-induced tyrosinase (tyrosinase [4]; OAG-treated G361 cells then Vitamin C, FIG. 3) was “decrease”.
